Patent publication US9011853B2, “B7-H4 fusion proteins and methods of use thereof” (Amplimmune, Inc., priority 2009, dated 2015)

System: serum levels of 58 analytes
Experiment: Serum biomarker analysis, quantitative immunoassay multi-analyte profiling (Rules-Based Medicine RodentMAP v2.9), AA#80
Type: in vivo, mouse
Experimental: In AA#80, serum samples were collected on Day 27, Day 34, Day 41 and Day 55 via the submandibular vein. Approximately 200 μL of blood per mouse was collected in Microtainer® serum separator tubes. Serum was removed following centrifugation and stored at <−65° C. until analysis.
Selected serum samples were sent to Rules-Based Medicine (Austin, Tex.) for quantitative immunoassay multi-analyte profiling of serum samples, with the goal of identifying biomarkers that could be used to monitor disease progression and response to B7-H4-Ig treatment. Day 27, Day 34, and Day 41 sera from the three representative mice in the B7-H4-Ig group (tag #3332, 3334, and 3338) and three representative mice in the Synagis® group (tag #3324, 3329, and 3330) were analyzed for levels of 58 analytes using the RodentMAP v2.9 Testing Service.
Data from the Rules-Based Medicine analysis was analyzed using Microsoft Excel and GraphPad Prism software. T-tests were performed to compare the levels of each analyte in the B7-H4-Ig versus Synagis® treated samples. No correction was made for multiple comparisons. Additionally, correlation coefficients were calculated for each analyte versus disease score.

B7-H4-Ig: B7-H4 extracellular domain fused to Ig Fc; bare label is the human protein in Example 3, murine protein in Examples 1, 2, 5, 7-11
serum IL-6 levels, difference between Synagis and B7-H4-Ig groups (AA#80 serum (FIG. 11)): did not reach statistical significance
serum SAP levels (B7-H4-Ig vs Synagis treated groups): not significantly different
serum MIP-2 levels (Day 41, vs Synagis treated mice (FIG. 15)): significantly lower
serum ET-1 levels (Day 41 and overall, vs Synagis treated mice (FIG. 10)): significantly lower
serum MCP-1 levels (Day 41 and overall, vs Synagis treated mice (FIG. 12)): significantly lower
serum MCP-3 levels (Day 41 and overall, vs Synagis treated mice (FIG. 14)): significantly lower
serum samples with TNF-α levels above the limit of detection (all samples (Day 27, 34, 41) (FIG. 16)): none
